Test results as given in ChEMBL document CHEMBL5226319, “Small molecule approaches to treat autoimmune and inflammatory diseases (Part III): Targeting cytokines and cytokine receptor complexes” (Bioorg Med Chem Lett, 2021).
Each block holds one compound with its values, some of them ahead of it.

How the values were obtained:
[1] = biological target: T1, Interleukin-2 receptor subunit alpha (Homo sapiens, UniProt P01589); test: Inhibition of IL-2R alpha (unknown origin)
T1 sequence (P01589 whole entry): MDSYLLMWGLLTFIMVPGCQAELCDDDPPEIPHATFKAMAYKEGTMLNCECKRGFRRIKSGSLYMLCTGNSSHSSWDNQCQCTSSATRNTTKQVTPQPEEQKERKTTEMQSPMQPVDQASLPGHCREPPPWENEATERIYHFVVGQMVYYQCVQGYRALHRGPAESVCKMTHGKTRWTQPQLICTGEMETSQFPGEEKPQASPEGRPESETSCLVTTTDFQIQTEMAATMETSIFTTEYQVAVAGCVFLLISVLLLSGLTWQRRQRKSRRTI

Interleukin-33 = biological target: T2, Interleukin-33 (Homo sapiens, UniProt O95760); test: Inhibition of human IL-33 incubated for 1 hrs by AlphaLISA assay
T2 sequence (O95760 whole entry): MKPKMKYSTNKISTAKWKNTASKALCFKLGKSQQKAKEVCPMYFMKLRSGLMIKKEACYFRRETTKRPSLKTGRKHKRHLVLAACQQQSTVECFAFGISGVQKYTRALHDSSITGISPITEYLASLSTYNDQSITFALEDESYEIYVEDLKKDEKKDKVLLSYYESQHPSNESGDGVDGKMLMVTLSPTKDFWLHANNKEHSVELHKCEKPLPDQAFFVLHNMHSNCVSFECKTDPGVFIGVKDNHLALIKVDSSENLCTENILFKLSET

Homo sapiens = species: Homo sapiens; test: (§1) Binding affinity to gp130 (unknown origin) assessed as fold increase
[2] = Inhibition of human CXCL1 protein secretion in IL-36 gamma-stimulated HaCaT cells; format: cell-based
Interleukin-18 = biological target: T3, Interleukin-18 (Homo sapiens, UniProt Q14116); test: Inhibition of human IL-18 expressed in Escherichia coli BL21(DE3) cells incubated for 18 hrs
T3 sequence (Q14116 whole entry): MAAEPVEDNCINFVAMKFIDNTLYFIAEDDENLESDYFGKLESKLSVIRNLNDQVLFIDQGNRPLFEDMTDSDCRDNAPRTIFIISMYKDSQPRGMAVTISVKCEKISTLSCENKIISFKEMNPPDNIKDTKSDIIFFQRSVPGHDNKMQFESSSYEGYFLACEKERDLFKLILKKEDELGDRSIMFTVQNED

[3] = biological target: T4, Interleukin-1 receptor type 1 (Homo sapiens, UniProt P14778); test: Inhibition of human IL1-R1 assessed as dissociation constant incubated for 5 mins by SPR analysis
T4 sequence (P14778 whole entry): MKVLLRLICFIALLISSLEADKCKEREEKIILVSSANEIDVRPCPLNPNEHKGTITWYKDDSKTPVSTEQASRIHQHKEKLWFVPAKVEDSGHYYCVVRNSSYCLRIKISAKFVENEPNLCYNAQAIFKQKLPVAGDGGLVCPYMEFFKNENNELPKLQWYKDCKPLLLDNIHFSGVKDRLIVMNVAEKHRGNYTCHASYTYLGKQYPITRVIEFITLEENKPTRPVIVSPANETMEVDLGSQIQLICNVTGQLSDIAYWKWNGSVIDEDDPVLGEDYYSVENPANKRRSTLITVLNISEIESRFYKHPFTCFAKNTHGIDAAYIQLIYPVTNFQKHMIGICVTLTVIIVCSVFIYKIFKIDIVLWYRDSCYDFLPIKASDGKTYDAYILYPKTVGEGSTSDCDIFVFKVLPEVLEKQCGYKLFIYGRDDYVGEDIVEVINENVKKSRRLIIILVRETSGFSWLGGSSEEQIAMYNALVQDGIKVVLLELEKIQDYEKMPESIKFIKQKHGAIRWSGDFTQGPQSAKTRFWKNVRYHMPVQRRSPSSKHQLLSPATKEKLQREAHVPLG

Interleukin-4 [4] = biological target: T5, Interleukin-4 (Homo sapiens, UniProt P05112); test: Inhibition of IL-4 (unknown origin) assessed as dissociation constant by SPR analysis
T5 sequence (P05112 whole entry): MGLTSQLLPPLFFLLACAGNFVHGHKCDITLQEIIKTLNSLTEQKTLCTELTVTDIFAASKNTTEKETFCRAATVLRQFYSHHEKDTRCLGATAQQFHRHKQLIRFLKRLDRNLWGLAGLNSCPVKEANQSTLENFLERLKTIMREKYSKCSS

Interleukin-4 [5] = biological target: T5, Interleukin-4; test: Inhibition of IL-4 (unknown origin) in human THP-1 cells assessed as inhibition of STAT6 phosphorylation by HEK-Blue assay; format: cell-based
[6] = as §1; design: species or system Homo sapiens
[7] = Inhibition of IL-6/gp130 (unknown origin) by SPR analysis; design: species or system Homo sapiens
[8] = Inhibition of OSMR/gp130 (unknown origin) by SPR analysis; design: species or system Homo sapiens
[9] = Binding affinity to gp130 (unknown origin) assessed as dissociation constant by SPR analysis; design: species or system Homo sapiens

Compound: COc1ccc([C@@H]2CCCN2Cc2ccc(-c3ccccc3[N+](=O)[O-])o2)cc1
IC50 (Interleukin-33): 42 µM

Compound: COC(c1ccccc1)(c1ccccc1)[C@H](Oc1nc(C)cc(-c2ccc(C)c(N)c2)n1)C(=O)O
IC50 [2]: 0.031 µM

Compound: COc1ccc([C@H]2CCCN2Cc2ccc(-c3ccccc3[N+](=O)[O-])o2)cc1
IC50 (Interleukin-33): 43 µM

Compound: CCCCc1ccc(O)c(CN2c3ccccc3[C@]3(O)C[C@@H](COC(=O)c4ccccc4)O[C@H]23)c1O
Kd [6]: 36.9 µM | fold change (FC) (Homo sapiens): 5

Compound: CCCCc1ccc(O)c(Cn2cc(CC(O)COC(=O)c3ccccc3)c3ccccc32)c1O (stereo unspecified)
Kd [6]: 29 µM | fold change (FC) (Homo sapiens): 5

Compound: CCCCC1=C(C)C(=O)[C@@](C)(CN2c3ccccc3[C@]3(O)CCO[C@H]23)C1=O
Kd [9]: 288 µM

The next lines start with the values.

IC50 [1]: 3 µM
Compound: COC(=O)[C@H](Cc1ccc(C#Cc2ccccc2)cc1)NC(=O)C[C@H]1CCCN(C(=N)N)C1

fold change (FC) (Homo sapiens): 5
Compound: CCCCc1ccc(OC)c(CN2c3ccccc3[C@]3(O)C[C@@H](COC(=O)c4ccccc4)O[C@H]23)c1OC

EC50 (Interleukin-18): 0.25 µM
Compound: N#Cc1ccc(NC(=O)Nc2ccc(Oc3ccc(NC(=O)Nc4ccc(C#N)cc4)cc3)cc2)cc1

Kd [3]: 316 µM
Compound: NCCc1c(-c2ccccc2)n(-c2ccccc2)c2ccccc12

Kd (Interleukin-4 [4]): 1.8 µM | EC50 (Interleukin-4 [5]): 3.1 µM
Compound: N#Cc1c(-c2ccc(O)c(O)c2)cc(-c2ccc(F)cc2)nc1N

Kd [7]: 2.9 µM | Kd [8]: 5.7 µM
Compound: Brc1ccc(Nc2nc(-c3ccccc3)cs2)cc1
